Structures are written as SMILES. Activity calls are given as the source filed them. The rule behind the calls is not given here.

Consider three compounds from ChEMBL document CHEMBL3797079, “Synergistic reduction of HIV-1 infectivity by 5-azacytidine and inhibitors of ribonucleotide reductase” (Bioorg Med Chem, 2016).

The target in test [1] is Human immunodeficiency virus type 1 reverse transcriptase (Human immunodeficiency virus 1) (UniProt Q72547). The test is described as follows: Inhibition of HIV-1 reverse transcriptase assessed as inhibition of primer extension using 5' 32P-end-labeled 17-mer DNA/40-mer RNA as primer/template up to 1 mM measured after 5 mins by PAGE analysis.
The test system of test [2] is Human immunodeficiency virus 1. The test can be described thus: Antiviral activity against VSV-G pseudotyped HIV-1 NL4-3 infected in human U373-MAGI cells assessed as reduction in gag level at 50 or 100 nM measured at 72 hrs post infection by qPCR method. The test is classed as functional, organism-based. On the technique in general: Quantitative PCR measures a nucleic acid by following its amplification.

Test [3] relates to Human immunodeficiency virus 1. The test is described as follows: Antiviral activity against VSV-G pseudotyped HIV-1 NL4-3 infected in human U373-MAGI cells assessed as reduction in gag level at 5 to 200 nM measured at 6 to 12 hrs post infection by qPCR method. The test is classed as functional, organism-based.
Test [4] has as its system Human immunodeficiency virus 1. The test can be described thus: Antiviral activity against VSV-G pseudotyped HIV-1 NL4-3 infected in human U373-MAGI cells assessed as reduction in U5-gag level at 50 or 100 nM measured at 72 hrs post infection by qPCR method. In kind it is functional, organism-based.
Test [5] concerns Human immunodeficiency virus 1. The test is described as follows: Antiviral activity against VSV-G pseudotyped HIV-1 NL4-3 infected in human U373-MAGI cells assessed as reduction in U5-gag level at 5 to 200 nM measured at 6 to 12 hrs post infection by qPCR method. The test is classed as functional, organism-based.

On to `Nc1ncn([C@@H]2O[C@H](COP(=O)(O)OP(=O)(O)OP(=O)(O)O)[C@@H](O)[C@H]2O)c(=O)n1`, for which the inhibition entry in test [1] was “inactive”.
Consider `Cc1nnc(C(=O)NC(C)(C)c2nc(C(=O)NCc3ccc(F)cc3)c(O)c(=O)n2C)o1`, for which the result in test [2] and in test [4] was Active. The result in test [3] and in test [5] was inactive.
For the compound `Nc1ncn([C@H]2C[C@H](O)[C@@H](COP(=O)(O)OP(=O)(O)OP(=O)(O)O)O2)c(=O)n1`, in test [1], the inhibition entry was “inactive”.
